Assay results from US8758767B2, “Antigens targeted by prevalent pathogennic T cells in type 1 diabetes and uses thereof” (Albert Einstein College of Medicine of Yeshiva University, priority 2003, dated 2014).

Tests used:
8.3 CTL = test: Epitope reconstitution 51Cr-release cytotoxicity assay, peptide-pulsed RMA-S/K^d target cells; format: cell-based, mouse; details: peptide-pulsed RMA-S/K^d targets
Protocol: 8.3 CTL were generated by culturing splenocytes from 8.3-NOD mice with mitomycin C-treated NOD splenocytes pulsed with NRP-A7 peptide as described (DiLorenzo et al, 2002). CTL were used in 16 h ^51Cr-release cytotoxicity assays to test for recognition of peptide-pulsed RMA-S/K^d target cells (provided by M. Bevan, University of Washington, Seattle, Wash., USA) at an effector to target ratio of 40:1 as described (DiLorenzo et al., 2002). Synthetic peptides were used at concentrations as indicated in the figures, and 7×10^8, 6×10^8, and 2×10^9 NIT-1-cell-equivalents of peptide were used for assays of first-, second-, and third-dimension HPLC fractions, respectively.

female NOD mice = test: Repeated peptide treatment of female NOD mice, diabetes development and islet-associated CD8+ T-cells; format: in vivo, mouse; details: for avidity of NRP-V7 tetramer binding by islet-associated CD8+ cells of treated mice: NRP-I4 100 μg/injection, NRP-A7 50 μg/injection, vs TUM-treated mice; for protection from diabetes by chronic treatment (discussion summary): intermediate doses NRP-A7, high doses NRP-I4, low or high doses NRP-V7, high doses IGRP206-214; for absolute number of NRP-V7-reactive T-cells in the islets: NRP-A7 50 μg/injection vs. TUM-treated mice; for T-cell responses against IGRP epitopes of islet-derived CD8+ T-cells of treated mice: for IGRP206-214 treatment: other IGRP epitopes
Protocol: Cohorts of 3-to-4 week-old female NOD mice were injected with 1-100 μg of peptide in PBS intraperitoneally. This was repeated every 2 weeks until the 7-8th week, and every 3 weeks thereafter. Mice were monitored for development of hyperglycemia until at least the 28th week of age. The 8.3-CD8+ T-cell tolerogenic activity of APLs was determined by treating 8-15 wk-old 8.3-NOD mice with one i.p. injection of 100 μg of peptide. […] Mice were sacrificed a week after treatment, and their spleens analyzed for presence of 8.3-CD8+ T-cells by flow cytometry.
We next investigated whether the anti-diabetogenic activity of the above APLs was a function of “avidity”, as defined not only by the affinity of individual peptide/MHC complexes for specific TCRs, but also by the absolute number of peptide/MHC complexes that are available for recognition (i.e. dose of peptide). This was done by treating cohorts of female NOD mice with repeated injections of TUM (negative control), NRP-I4, NRP-A7 and NRP-V7 (in PBS) over a wide dose range, and by following the mice for development of diabetes (FIG. 7A, top). Starting at 3-4 weeks of age, mice received one injection of peptide i.p. every 2 (first three doses) or 3 weeks after initiation of treatment. Mice were sacrificed at diabetes onset or at the end of the follow-up period (28-32 weeks), to investigate the effects of treatment on the size and tetramer-binding avidity of the islet-associated IGRP206-214-reactive CD8+ T-cell subpopulation (FIG. 7A, bottom).

8.3-CD8+ T-cells = test: Proliferation and cytokine secretion of naive splenic 8.3-CD8+ T-cells with peptide-pulsed NOD splenocytes; format: cell-based, mouse; details: for agonistic activity on 8.3-CD8+ T-cells: FIG. 5, peptide 0.01-1 μM
Protocol: Naïve or NRP-A7-differentiated (see below) splenic CD8+ T-cells from 8.3-NOD mice (2×10^4/well) were incubated, in duplicate, with peptide-pulsed (0.01, 0.1 and 1 μM), γ-irradiated (3,000 rad) NOD splenocytes (10^5/well) for 3 days at 37° C. in 5% CO2. Cultures were pulsed with 1 μCi of (^3H)-thymidine during the last 18 hours of culture and harvested.
(§1) Naïve splenic CD8+ T-cells from 8.3-NOD mice (2×10^4/well) were incubated with peptide-pulsed (0.001, 0.01, 0.1, 1 and/or 10 μM) γ-irradiated NOD splenocytes (10^5/well) in 96-well plates for 48 hours at 37° C. Short-term islet-derived T-cell lines from peptide-treated or unmanipulated NOD mice (adjusted at 2×10^4 CD8+ T-cells/well) were tested the same way, but using 10 μM of peptide. The supernatants (100 μl/well) were assayed in duplicate for IL-2, IL-4, and/or IFN-γ content by ELISA using commercially available kits (Genzyme Diagnostics, Cambridge, Mass.).

AI15.F5 TCR = test: TCR transfectant peptide recognition, IL-2 release (58 α−β− cells, RMA-S/K^d presenters); format: cell-based, mouse; details: FIG. 2
Source text: (§2) T cell receptors from the previously isolated NOD-derived β cell-autoreactive class I MHC-restricted T cell clones AI4, AI12.B1.1, AI12.B1.2, AI12.B1.3, AI15.A10, AI15.F5 (DiLorenzo et al., 1998), and 8.3 (Verdaguer et al., 1997) were expressed in the TCR^− T cell hybridoma 58α^−β^− (engineered to express the TCR ζ chain and CD8αβ and provided by H.-C. Chang, Dana Farber, Boston, Mass., USA) as described (Serreze et al., 2001). TCR expression was verified by flow cytometric analysis of growing clones using an antibody to CD3ε (145-2C11). RMA-S/K^d cells incubated overnight at 28° C. were used to present exogenously added synthetic peptides at concentrations as indicated in the figures. Peptide recognition by the TCR transfectants was measured by IL-2 production as previously described (Serreze et al., 2001).

AI12.B1.3 TCR = test: as above; format: cell-based, mouse; details: FIG. 2
Source text: as §2

NOD female mice = test: Protection of NOD mice from type 1 diabetes (Example 2); format: in vivo, mouse; details: for mice that developed diabetes: 100 micrograms peptide intraperitoneally from 3.5 weeks of age, read at ~25 weeks-old
Protocol: Ten NOD female mice were treated with 100 micrograms of IGRP206-214 peptide (in phosphate-buffered saline) intraperitoneally, starting at 3.5 weeks of age. Forty mice were used as controls. Each control mouse was treated with the TUM peptide ([…] NO:15). The mice received one injection of peptide every two weeks for the first three injections, and then one injection every three weeks thereafter. At 25 weeks-old, two (20%) of the IGRP206-214 mice developed diabetes, vs. 26 control mice ( 65%). […] There were no significant differences in interferon-γ production vs. cells stimulated with the negative control peptide TUM. In one of these two mice, the islets contained T-cells that responded to two IGRP peptides other than IGRP206-214.

H-2K^d = biological target: T1, H-2K^d (Mus musculus, UniProt P01902); test: H-2K^d stabilization assay on RMA-S/K^d cells (Example 1); format: binding; details: FIG. 3, mean fluorescence intensity of H-2K^d
T1 construct: expressed in transfected cells; host or cells: RMA-S/K^d cells
T1 sequence (P01902 22-368): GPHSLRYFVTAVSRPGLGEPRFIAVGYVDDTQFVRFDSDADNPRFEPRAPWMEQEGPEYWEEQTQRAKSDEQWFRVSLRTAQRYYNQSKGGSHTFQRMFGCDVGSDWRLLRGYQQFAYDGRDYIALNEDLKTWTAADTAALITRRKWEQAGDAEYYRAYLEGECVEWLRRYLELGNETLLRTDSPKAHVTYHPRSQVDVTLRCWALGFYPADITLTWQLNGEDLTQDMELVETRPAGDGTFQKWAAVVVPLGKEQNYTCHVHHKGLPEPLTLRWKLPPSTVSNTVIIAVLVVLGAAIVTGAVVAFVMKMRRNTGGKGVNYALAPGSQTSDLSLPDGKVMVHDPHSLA
T1 sequence (P01887 21-119 partner): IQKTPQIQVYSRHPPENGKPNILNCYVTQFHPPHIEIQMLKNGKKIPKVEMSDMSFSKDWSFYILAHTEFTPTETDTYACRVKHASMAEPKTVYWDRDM
Protocol: RMA-S/K^d cells, cultured overnight at 28° C., were pulsed with peptides in complete DMEM for 1 h at 28° C., incubated at 37° C. for 3 h, washed, stained with anti-H-2K^d monoclonal antibody SF1-1.1, counter-stained with FITC-conjugated polyclonal goat anti-mouse antibody, and analyzed by flow cytometry. Data were calculated by subtracting mean fluorescence intensity of H-2K^d on non-peptide-pulsed cells from that on peptide-pulsed cells.

[1] = tested on: CD8+ cells propagated from islets of NOD mice; test: IFN-γ secretion by islet-derived CD8+ T-cells in response to IGRP peptides; format: cell-based, mouse; details: peptide 10 μM, pre-diabetic or acutely diabetic NOD mice
Source text: Islet-derived CD8+ T-cells from peptide-treated or unmanipulated NOD mice were generated by culturing pancreatic islets in complete media (CM: RPMI 1640 media containing 10% fetal bovine serum), containing 0.5 U/ml Takeda rhIL-2 (10-50 islets/well in 24-well plates). The in vivo-activated, IL-2R+ lymphocytes migrating from islets into the culture media were used in functional assays within 6-9 days of islet isolation (Amrani et al., 2000; Anderson et al., 1999).
as §1

[2] = tested on: CD8+ cells derived from pancreatic islets of wild-type NOD mice; test: Tetramer staining and avidity of NOD islet-derived CD8+ T-cells (Example 3); format: cell-based, mouse; details: FIG. 9B, at least some animals
Protocol: Tetramers were prepared and used as described in (Amrani et al., 2000). Hand-picked pancreatic islets from individual mice were cultured in complete media supplemented with 0.5 U/ml of Takeda rhIL-2 for 7-9 days. T-cells (10^6 per 20 μl) were then stained for 45 minutes on ice in 20 μl of wash media (0.2% sodium bicarbonate, 0.1% sodium azide and 2% FBS in RPMI-1640) containing anti-CD8-FITC (clone YTS169.4; 0.5 μg) and tetramer (85.5 nM). After washing, the cells were resuspended in wash media and analyzed with a flow cytometer (Becton Dickinson). For the analysis of tetramer staining at equilibrium, T-cells were stained for 2 hours at room temperature with 20 μl of wash media (0.2% sodium bicarbonate, 0.1% sodium azide and 2% FBS in RPMI-1640) containing anti-CD8α-FITC (clone YTS169.4; 0.5 μg) and different concentrations of tetramers (8.55, 17.1, 42.75 and 85.5 nM). After washing, cells were resuspended in 100 μl of wash media, fixed in 0.4% paraformaldehide and analyzed with a flow cytometer. The apparent Kd values were determined by plotting the negative reciprocal of the slope of the line fit to Scatchard plots of fluorescence units (median of CD8+ population tetramer staining)/nM versus fluorescence units.

[3] = IFN-γ secretion, Table II, FIG. 10A

Sequence: KYCLITIFL [G6Pase, reference compound]
- recognition by 8.3 CTL (8.3 CTL): not recognized by 8.3 CTL

Sequence: KYNIANWFL [NRP-I4]
- anti-diabetogenic activity (female NOD mice; 100 μg/injection): highly anti-diabetogenic
- anti-diabetogenic activity (female NOD mice; <20 μg/injection): not protective at all
- avidity of NRP-V7 tetramer binding by islet-associated CD8+ cells of treated mice (female NOD mice): significantly lower avidity
- protection from diabetes by chronic treatment (discussion summary) (female NOD mice): near complete protection from diabetes
- triggering IFN-γ secretion by naive 8.3-CD8+ T-cells (8.3-CD8+ T-cells; FIG. 5): quite efficient
- agonistic activity on 8.3-CD8+ T-cells (8.3-CD8+ T-cells): partial agonist
- inducing other responses of naive 8.3-CD8+ T-cells (8.3-CD8+ T-cells; FIG. 5, proliferation, IL-2): significantly less efficient than NRP-A7

Sequence: KYNKANAFL [NRP-A7]
- recognition by AI15.F5 (IL-2 release) (AI15.F5 TCR): did not recognize
- recognition by AI12.B1.3 (IL-2 release) (AI12.B1.3 TCR): recognized
- anti-diabetogenic activity (female NOD mice; 50 μg/injection): protected mice from diabetes
- anti-diabetogenic activity (female NOD mice; 100 μg/injection): ineffective
- percentages and absolute numbers of NRP-V7-reactive CD8+ cells in the islets (female NOD mice; 100 μg/injection): significantly reduced numbers
- absolute number of NRP-V7-reactive T-cells in the islets (female NOD mice): 0.6×10^5±0.3
- avidity of NRP-V7 tetramer binding by islet-associated CD8+ cells of treated mice (female NOD mice): accumulation of low avidity IGRP206-214-reactive CD8+ T-cells within islets
- protection from diabetes by chronic treatment (discussion summary) (female NOD mice): near complete protection from diabetes
- agonistic activity on 8.3-CD8+ T-cells (8.3-CD8+ T-cells): agonist

Sequence: KYQAVTTTL [TUM, reference compound]
- mice that developed diabetes (NOD female mice): ~65%
- T-cell responses against IGRP epitopes of islet-derived CD8+ T-cells of treated mice (female NOD mice; [3]): did not significantly increase
- absolute number of NRP-V7-reactive T-cells in the islets (female NOD mice): 1×10^5±0.3

Sequence: LYLVCGERG [INS B15-23]
- binding to H-2K^d (H-2K^d): barely detectable even at the highest peptide concentration tested

Sequence: LYLVCGERI [INS-I9]
- binding to H-2K^d (H-2K^d): improved binding to H-2K^d

Sequence: SFCKSASIP [peptide 72, text numbering of the IGRP library]
- mice with islet CD8+ T-cells responding to the peptide (IFN-γ secretion) [1]: a significant number of mice also mounted responses
- presence of peptide-reactive CD8+ T-cells in islets by tetramers [2]: confirmed the presence

Sequence: VYLKTNVFL [IGRP206-214]
- recognition by 8.3 CTL (8.3 CTL): is the natural β cell peptide recognized by 8.3
- mice with islet CD8+ T-cells responding to the peptide (IFN-γ secretion) [1]: most mice
- mice that developed diabetes (NOD female mice): 20%
- IGRP206-214-reactive T-cells in islets of treated mice that developed diabetes (NOD female mice; NRP-V7/K^d tetramer staining): did not have IGRP206-214-reactive T-cells in islets
- recognition by AI15.F5 (IL-2 release) (AI15.F5 TCR): responded
- recognition by AI12.B1.3 (IL-2 release) (AI12.B1.3 TCR): recognized
- binding to H-2K^d (H-2K^d): good MEC binding
- age at onset of diabetes (female NOD mice; 75-100 μg/injection): delayed
- incidence of diabetes (female NOD mice; 75-100 μg/injection): did not significantly reduce
- intra-islet IGRP206-214-reactive CD8+ T-cell subpopulation (female NOD mice; 75-100 μg/injection, flow cytometry and functional assays): near complete deletion
- anti-IGRP206-214 response of islet-derived CD8+ T-cells of treated mice (female NOD mice; [3]): reduced both the frequency and magnitude
- T-cell responses against IGRP epitopes of islet-derived CD8+ T-cells of treated mice (female NOD mice; [3]): increased the frequency and magnitude
- protection from diabetes by chronic treatment (discussion summary) (female NOD mice): only afforded marginal protection from disease

Sequence: YLKTNVFLF [IGRP207-215]
- mice with islet CD8+ T-cells responding to the peptide (IFN-γ secretion) [1]: most mice
- cross-reactivity with IGRP206-214, ability to elicit 8.3-CD8+ T-cell responses (8.3-CD8+ T-cells; data not shown): cross-reactive with IGRP206-214
